Test results reported in ChEMBL document CHEMBL1201862, “PubChem BioAssay data set” (2004).
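Following 48 hours of exposure in 96-well plates, responses at five concentrations were used to interpolate endpoints linearly. GI50: concentration for 50% inhibition of growth.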 Activity calls are given as the source filed them. Cut-off read from the data, not from the text of the source: active = GI50 up to about 1.1 µM and inactive = higher.

Assays:
Assay in all cases: NCI anticancer screen, dose series, 48 h
OVCAR-5 = test system: OVCAR-5
PC-3 = test system: PC-3
SK-MEL-28 = test system: SK-MEL-28
LOX IMVI = test system: LOX IMVI
Hs-578T = test system: Hs-578T
HCC 2998 = test system: HCC 2998
MDA-MB-231 = test system: MDA-MB-231
COLO 205 = test system: COLO 205
MDA-N = test system: MDA-N
NCI/ADR-RES = test system: NCI/ADR-RES
TK-10 = test system: TK-10
HCT-116 = test system: HCT-116
CAKI-1 = test system: CAKI-1
SF-295 = test system: SF-295
K562 = test system: K562
HCT-15 = test system: HCT-15
UACC-62 = test system: UACC-62
T47D = test system: T47D
U-251 = test system: U-251
M14 = test system: M14
MCF7 = test system: MCF7
SNB-75 = test system: SNB-75
OVCAR-4 = test system: OVCAR-4
IGROV-1 = test system: IGROV-1
NCI-H226 = test system: NCI-H226
UACC-257 = test system: UACC-257
OVCAR-8 = test system: OVCAR-8
HOP-62 = test system: HOP-62
HT-29 = test system: HT-29
SK-MEL-5 = test system: SK-MEL-5
SR = test system: SR
786-0 = test system: 786-0
SW-620 = test system: SW-620
RXF 393 = test system: RXF 393
NCI-H522 = test system: NCI-H522
RPMI-8226 = test system: RPMI-8226
A549 = test system: A549
MOLT-4 = test system: MOLT-4
HOP-92 = test system: HOP-92
SF-539 = test system: SF-539
SF-268 = test system: SF-268
DU-145 = test system: DU-145
OVCAR-3 = test system: OVCAR-3
ACHN = test system: ACHN
EKVX = test system: EKVX
CCRF-CEM = test system: CCRF-CEM
Malme-3M = test system: Malme-3M
MDA-MB-435 = test system: MDA-MB-435
SN12C = test system: SN12C
SK-OV-3 = test system: SK-OV-3
SK-MEL-2 = test system: SK-MEL-2
UO-31 = test system: UO-31
HL-60 = test system: HL-60
NCI-H23 = test system: NCI-H23
BT-549 = test system: BT-549
SNB-19 = test system: SNB-19
KM12 = test system: KM12
NCI-H460 = test system: NCI-H460
A498 = test system: A498

Compound: CCOC(=O)C(NCc1ccccc1)(NC(=O)c1ccccc1)C(F)(F)F (stereo unspecified)
- GI50 (OVCAR-5): > 100 µM (inactive)
- GI50 (PC-3): > 100 µM (inactive)
- GI50 (SK-MEL-28): > 100 µM (inactive)
- GI50 (LOX IMVI): 95.1 µM (inactive)
- GI50 (Hs-578T): > 100 µM (inactive)
- GI50 (HCC 2998): > 100 µM (inactive)
- GI50 (MDA-MB-231): 21.4 µM (inactive)
- GI50 (COLO 205): > 100 µM (inactive)
- GI50 (MDA-N): > 100 µM (inactive)
- GI50 (NCI/ADR-RES): 43.3 µM (inactive)
- GI50 (TK-10): > 100 µM (inactive)
- GI50 (HCT-116): > 100 µM (inactive)
- GI50 (CAKI-1): > 100 µM (inactive)
- GI50 (SF-295): > 100 µM (inactive)
- GI50 (K562): 60.1 µM (inactive)
- GI50 (HCT-15): 78.3 µM
- GI50 (UACC-62): > 100 µM (inactive)
- GI50 (T47D): 38.5 µM (inactive)
- GI50 (U-251): > 100 µM (inactive)
- GI50 (M14): > 100 µM (inactive)
- GI50 (MCF7): > 100 µM (inactive)
- GI50 (SNB-75): 68.1 µM (inactive)
- GI50 (OVCAR-4): 45.3 µM (inactive)
- GI50 (IGROV-1): > 100 µM (inactive)
- GI50 (NCI-H226): > 100 µM (inactive)
- GI50 (UACC-257): 90.4 µM (inactive)
- GI50 (OVCAR-8): 98.9 µM (inactive)
- GI50 (HOP-62): > 100 µM (inactive)
- GI50 (HT-29): > 100 µM (inactive)
- GI50 (SK-MEL-5): 84.9 µM (inactive)
- GI50 (SR): 32.1 µM (inactive)
- GI50 (786-0): > 100 µM (inactive)
- GI50 (SW-620): 43.6 µM (inactive)
- GI50 (RXF 393): 64.7 µM (inactive)
- GI50 (NCI-H522): 35.6 µM (inactive)
- GI50 (RPMI-8226): 33.3 µM (inactive)
- GI50 (A549): > 100 µM (inactive)
- GI50 (MOLT-4): 32.3 µM (inactive)
- GI50 (HOP-92): 42.3 µM (inactive)
- GI50 (SF-539): > 100 µM (inactive)
- GI50 (SF-268): > 100 µM (inactive)
- GI50 (DU-145): > 100 µM (inactive)
- GI50 (OVCAR-3): 89.7 µM (inactive)
- GI50 (ACHN): > 100 µM (inactive)
- GI50 (EKVX): 82.4 µM (inactive)
- GI50 (CCRF-CEM): 24.2 µM (inactive)
- GI50 (Malme-3M): > 100 µM (inactive)
- GI50 (MDA-MB-435): > 100 µM (inactive)
- GI50 (SN12C): > 100 µM (inactive)
- GI50 (SK-OV-3): > 100 µM (inactive)
- GI50 (SK-MEL-2): > 100 µM (inactive)
- GI50 (UO-31): 46.6 µM (inactive)
- GI50 (HL-60): 29 µM (inactive)
- GI50 (NCI-H23): > 100 µM (inactive)
- GI50 (BT-549): > 100 µM (inactive)
- GI50 (SNB-19): > 100 µM (inactive)
- GI50 (KM12): 81.5 µM (inactive)

Compound: Nc1nccc(-c2c[nH]c3cc(Br)ccc23)n1 [MERIDIANIN D]
- GI50 (OVCAR-5): 17.5 µM (inactive)
- GI50 (PC-3): 30.1 µM (inactive)
- GI50 (SK-MEL-28): 30.5 µM (inactive)
- GI50 (LOX IMVI): 25.3 µM (inactive)
- GI50 (Hs-578T): 25.9 µM (inactive)
- GI50 (HCC 2998): 25.1 µM (inactive)
- GI50 (MDA-MB-231): 33.2 µM (inactive)
- GI50 (COLO 205): 18.7 µM (inactive)
- GI50 (MDA-N): 21 µM (inactive)
- GI50 (NCI/ADR-RES): 30.8 µM (inactive)
- GI50 (TK-10): 22.3 µM (inactive)
- GI50 (HCT-116): 18.6 µM (inactive)
- GI50 (CAKI-1): 12.6 µM (inactive)
- GI50 (SF-295): 35.3 µM (inactive)
- GI50 (K562): 33.5 µM (inactive)
- GI50 (HCT-15): 25.1 µM
- GI50 (UACC-62): 22 µM (inactive)
- GI50 (T47D): 30.4 µM (inactive)
- GI50 (U-251): 30.8 µM (inactive)
- GI50 (M14): 24.5 µM (inactive)
- GI50 (MCF7): 19.9 µM (inactive)
- GI50 (SNB-75): 20.5 µM (inactive)
- GI50 (OVCAR-4): 48.9 µM (inactive)
- GI50 (IGROV-1): 23.7 µM (inactive)
- GI50 (NCI-H226): 45.6 µM (inactive)
- GI50 (NCI-H460): 30 µM (inactive)
- GI50 (UACC-257): 30.2 µM (inactive)
- GI50 (OVCAR-8): 35.7 µM (inactive)
- GI50 (HOP-62): 30 µM (inactive)
- GI50 (HT-29): 20.3 µM (inactive)
- GI50 (SK-MEL-5): 18.9 µM (inactive)
- GI50 (SR): 17.3 µM (inactive)
- GI50 (786-0): 21.5 µM (inactive)
- GI50 (SW-620): 33.3 µM (inactive)
- GI50 (RXF 393): 15.5 µM (inactive)
- GI50 (NCI-H522): 17.7 µM (inactive)
- GI50 (RPMI-8226): 22.6 µM (inactive)
- GI50 (A549): 15.7 µM (inactive)
- GI50 (MOLT-4): 24.7 µM (inactive)
- GI50 (HOP-92): 23.7 µM (inactive)
- GI50 (SF-539): 32.6 µM (inactive)
- GI50 (SF-268): 31 µM (inactive)
- GI50 (DU-145): 34.5 µM (inactive)
- GI50 (OVCAR-3): 28.8 µM (inactive)
- GI50 (ACHN): 19.8 µM (inactive)
- GI50 (EKVX): 1.59 µM (inactive)
- GI50 (CCRF-CEM): 41.1 µM (inactive)
- GI50 (Malme-3M): 34.8 µM (inactive)
- GI50 (MDA-MB-435): 26.5 µM (inactive)
- GI50 (SN12C): 21.7 µM (inactive)
- GI50 (SK-OV-3): 29.1 µM (inactive)
- GI50 (SK-MEL-2): 20 µM (inactive)
- GI50 (UO-31): 18.7 µM (inactive)
- GI50 (HL-60): 29.2 µM (inactive)
- GI50 (NCI-H23): 25.2 µM (inactive)
- GI50 (BT-549): 31.2 µM (inactive)
- GI50 (SNB-19): 20.7 µM (inactive)
- GI50 (KM12): 24.2 µM (inactive)

Compound: CC1(C23CC4CC(CC(C4)C2)C3)n2c(=O)n(-c3ccccc3)c(=O)n2C1(C)C12CC3CC(CC(C3)C1)C2 (stereo unspecified)
- GI50 (OVCAR-5): > 100 µM (inactive)
- GI50 (PC-3): > 100 µM (inactive)
- GI50 (SK-MEL-28): > 100 µM (inactive)
- GI50 (Hs-578T): 18.8 µM (inactive)
- GI50 (MDA-MB-231): > 100 µM (inactive)
- GI50 (COLO 205): > 100 µM (inactive)
- GI50 (MDA-N): > 100 µM (inactive)
- GI50 (NCI/ADR-RES): > 100 µM (inactive)
- GI50 (TK-10): > 100 µM (inactive)
- GI50 (CAKI-1): > 100 µM (inactive)
- GI50 (SF-295): > 100 µM (inactive)
- GI50 (K562): > 100 µM (inactive)
- GI50 (HCT-15): > 100 µM
- GI50 (UACC-62): > 100 µM (inactive)
- GI50 (T47D): > 100 µM (inactive)
- GI50 (U-251): > 100 µM (inactive)
- GI50 (M14): > 100 µM (inactive)
- GI50 (MCF7): > 100 µM (inactive)
- GI50 (SNB-75): 74.1 µM (inactive)
- GI50 (IGROV-1): > 100 µM (inactive)
- GI50 (NCI-H226): > 100 µM (inactive)
- GI50 (NCI-H460): > 100 µM (inactive)
- GI50 (UACC-257): > 100 µM (inactive)
- GI50 (OVCAR-8): > 100 µM (inactive)
- GI50 (HOP-62): > 100 µM (inactive)
- GI50 (HT-29): > 100 µM (inactive)
- GI50 (SK-MEL-5): > 100 µM (inactive)
- GI50 (SR): > 100 µM (inactive)
- GI50 (SW-620): > 100 µM (inactive)
- GI50 (A498): > 100 µM (inactive)
- GI50 (RPMI-8226): 89.7 µM (inactive)
- GI50 (A549): > 100 µM (inactive)
- GI50 (MOLT-4): > 100 µM (inactive)
- GI50 (HOP-92): > 100 µM (inactive)
- GI50 (SF-539): > 100 µM (inactive)
- GI50 (SF-268): > 100 µM (inactive)
- GI50 (DU-145): > 100 µM (inactive)
- GI50 (OVCAR-3): > 100 µM (inactive)
- GI50 (ACHN): > 100 µM (inactive)
- GI50 (EKVX): 91.2 µM (inactive)
- GI50 (CCRF-CEM): > 100 µM (inactive)
- GI50 (MDA-MB-435): > 100 µM (inactive)
- GI50 (SN12C): > 100 µM (inactive)
- GI50 (SK-OV-3): > 100 µM (inactive)
- GI50 (SK-MEL-2): > 100 µM (inactive)
- GI50 (UO-31): > 100 µM (inactive)
- GI50 (HL-60): > 100 µM (inactive)
- GI50 (NCI-H23): > 100 µM (inactive)
- GI50 (BT-549): > 100 µM (inactive)
- GI50 (SNB-19): > 100 µM (inactive)
- GI50 (KM12): > 100 µM (inactive)
